Test results reported in patent EP0799614A1, “REMEDY FOR ISCHEMIC DISEASES” (CHUGAI SEIYAKU KABUSHIKI KAISHA, priority 1994, dated 1996).
Read-outs that look alike come from different tables or passages of the source.

Key:
[1] = tested on: thoracic aorta; experiment: Vasorelaxing action in vitro: relaxation of 30 mM K+ contraction of aortic rings; format: cell-based, Sprague-Dawley (Crj) male rat; settings: contraction at 30 mM K+ taken as 100%
Procedure: The thoracic aorta was excised from a Sprague-Dawley (Crj) male rat weighing between 350 and 550 g, and dissected free from surrounding connective tissue. The vessel was cut into a ring having a width of 2 to 3 mm. The resulting preparation was mounted for isometric tension recording in an organ bath filled with 10 ml of a Krebs-Henseleit solution (K-H solution, pH 7.4, 37°C), which was bubbled with 95% 02/5% CO2. Isometric tension changes were monitored with an isometric tranducer (TB-611T, manufactured by Nihon Kohden Corp.). Before starting the experiment, the preparation was given a stretched tension of 2 g and allowed to equilibrate for 30 minutes (the K-H solution was exchanged for a fresh one every 15 minutes). At first, the preparation was precontracted by changing the solution in the bath to one containing 30 mM K^+. After the contraction was maintained for 20 minutes, the preparation was washed with K-H solution. Sixty minutes thereafter (the K-H solution was exchanged with a fresh one every 20 minutes), contraction was again induced in the same manner as described above. […]

[2] = tested on: Isolated ventricular myocytes; experiment: Inhibitory action on calcium overload in vitro, Method A: veratrine-treated myocytes, survival rate; format: cell-based, male Sprague-Dawley rat; parameters: key: ++: The cells survived almost completely at 10^-7 M.; +: The cells survived almost completely at 10^-6 M.; The cells died almost completely at 10 M^-6 M; settings: 30 minutes pretreatment, veratrine 100 µg/ml, observed five minutes later
Procedure: (§1) Isolated ventricular myocytes were prepared from the heart of male Sprague-Dawley rat weighing 300 to 500 g, using an enzyme-perfusion method. […]

[3] = tested on: Male Sprague-Dawley rats; experiment: Preventive effect on ventricular arrhythmia caused by occlusion and reperfusion of the coronary artery; format: in vivo; settings: Fig. 4; 0.5, 1 and 3 mg/kg via femoral vein 10 min before occlusion; compared with diltiazem 1 and 3 mg/kg
Procedure: Male Sprague-Dawley rats (450 - 600 g) were anethetized with pentobarbital, subjected to thoracotomy under artificial respiration, had the arterior descending branch of the left coronary artery occluded with a silk ligature for 5 min, had the occlusion removed to permit reperfusion and examined for 10 min. A standard limb lead II electrocardiogram was recorded to check for the occurrence of ventricular arrythmia. […] The parethesized numeral at the bottom of each bar in Fig. 4 represents the number of cases.

[4] = tested on: rabbit LDL; experiment: Inhibitory action on lipid peroxidation in vitro, Method A: oxidation of LDL by soybean lipoxygenase, fluorescence of LDL fraction; format: biochemical; settings: fluorescence intensity of oxidized LDL fraction, SLO 40 µg/ml, 37°C, 24 hours
Procedure: A test compound was added to rabbit LDL prepared according to the method of Havel, et al. (Havel RJ et al., J. Clin. Invest., 34, 1345 (1955)), and then a soybean lipoxygenase type-IS (SLO) was added to a final concentration of 40 µg/ml. Oxidation of LDL was carried out at 37°C in a CO2 incubator for 24 hours. The oxidized LDL solution was separated by gel-permeation chromatography, and the fluorescence intensity of the LDL fraction was measured at an excitation wavelength of 360 nm and an emission wavelength of 430 nm.

[5] = tested on: Isolated ventricular myocytes; experiment: Inhibitory action on calcium overload in vitro, Method B: veratridine-treated myocytes; format: cell-based, male Sprague-Dawley rat; settings: veratridine 50 µg/ml, read-out: Concentration at Which Cells Survived Almost Completely
Procedure: as §1
The efficacy was evaluated in the same manner as in Method A, except for using 50 µg/ml of veratridine in place of veratrine (100 µg/ml).

[6] = tested on: Thoracic aorta preparations from rats; experiment: Vasorelaxing action in vitro: effect on CaCl2-induced contractions; format: cell-based; settings: Fig. 1; CaCl2 0.01 - 10 mM in 60 mM K+ PSS; compared with diltiazem
Procedure: Thoracic aorta preparations from rats were stabilized in normal physiological salt solution (PSS) for at least 30 min, contracted with 60 mM KCl and, thereafter, relaxed with normal PSS. Twenty minutes later, the preparations were exposed to Ca^2+ -free 60 mM K^+ PSS (containing 0.1 mM EGTA) for 20 min, then to nominally Ca^2+ -free 60 mM K^+ PSS which is free of EGTA for 20 min, followed by cumulative application of CaCl2 (0.01 - 10 mM) to construct a dose-response curve. […] The response was converted to percent contraction, with the contraction caused by 10 mM CaCl2 being taken as 100%. The data in Fig. 1 are expressed by the mean of 5 cases ± standard error.

[7] = tested on: coronary preparations from dogs; experiment: Antispasmodic action in vitro: 3,4-diaminopyridine-induced rhythmic contractions; format: cell-based; settings: Fig. 2; 3,4-DAP 10 mM; compared with diltiazem
Procedure: Following repeated replacements of PSS in an organ bath at 15-min intervals, the tension on each of the coronary preparations from dogs stabilized at 2 g; then, PSS was replaced by a 30 mM K^+ PSS to contract the preparations. The 30mM K^+ PSS was replaced by normal PSS in an organ bath to relax the preparations, followed by replacements with PSS at 20-min intervals to stabilize the tension for about 1 h, followed by the addition of 3,4-DAP (10 mM) to induce rhythmic contractions. […] The drug concentration allowing for complete suppression of the amplitude of the 3,4-DAP-induced rhythmic contractions may be designated "elimination dose".

CC1SC(c2cc(C(C)(C)C)c(O)c(C(C)(C)C)c2)N(CCCN(C)CCOc2ccc3c(c2)OCO3)C1=O (stereo not drawn) [Compound 72, 2,5-Trans-2-(3,5-di-tert-butyl-4-hydroxyphenyl)-3-[3-[N-methyl-[2-(3,4-methylenedioxyphenoxy)ethyl]amino]propyl]-5-methyl-1,3-thiazolidin-4-one]
IC50 ([1]; Rattus norvegicus): 98 nM

CN(CCCN1C(=O)CSC1c1cc(C(C)(C)C)c(O)c(C(C)(C)C)c1)CCOc1ccc2c(c1)OCO2 (centres unmarked) [Compound 26, 2-(3,5-Di-tert-butyl-4-hydroxyphenyl)-3-[3-[N-methyl-N-[2-(3,4-methylenedioxyphenoxy)ethyl]amino]propyl]-1,3-thiazolidin-4-one]
IC50 [1]: 37 nM | Survival Rate of Cells [2]: ++ | incidence of arrhythmia [3]: by far superior effect to diltiazem in decreasing the incidnece of arrhythmia

CC1SC(c2cc(C(C)(C)C)c(O)c(C(C)(C)C)c2)N(CCCN(C)CCOc2ccc3c(c2)OCO3)C1=O (centres unmarked) [Compound 41, 2-(3,5-Di-tert-butyl-4-hydroxyphenyl)-3-[3-[N-methyl-N-[2-(3,4-methylenedioxyphenoxy)ethyl]amino]propyl]-5-methyl-1,3-thiazolidin-4-one]
Percent (%) of Control ([4]; 5 x 10^-6 M): 6.2% | IC50 [1]: 56 nM

COc1c(C(C)(C)C)cc(C2SCC(=O)N2CCCN(C)CCOc2ccc3c(c2)OCO3)cc1C(C)(C)C (centres unmarked) [Compound 11]
IC50 ([1]; Rattus norvegicus): 21 nM

CN(CCCN1C(=O)C(OCCO)SC1c1cc(C(C)(C)C)c(O)c(C(C)(C)C)c1)CCOc1ccc2c(c1)OCO2 (centres unmarked) [Compound 55]
IC50 ([1]; Rattus norvegicus): 21 nM

CN(CCCCN1C(=O)CSC1c1cc(C(C)(C)C)c(O)c(C(C)(C)C)c1)CCOc1ccc2c(c1)OCO2 (centres unmarked) [Compound 8]
IC50 ([1]; Rattus norvegicus): 170 nM | Survival Rate of Cells [2]: ++

CC1SC(c2cc(C(C)(C)C)c(O)c(C(C)(C)C)c2)N(CCCN(C)CCOc2ccc3c(c2)OCO3)C1=O (single isomer, unassigned; (-)) [Compound 75, (-)-2,5-Cis-2-[3,5-di-tert-butyl-4-hydroxyphenyl)-3-[3-[N-methyl-N-[2-(3,4-methylenedioxyphenoxy)ethyl]amino]propyl]-5-methyl-1,3-thiazolidin-4-one]
IC50 [1]: 22 nM | minimal effective concentration [5]: 0.32 µM

CC1SC(c2cc(C(C)(C)C)c(O)c(C(C)(C)C)c2)N(CCCN(C)CCOc2ccc3c(c2)OCO3)C1=O (stereo not drawn) [Compound 73, 2,5-Cis-2-(3,5-di-tert-butyl-4-hydroxyphenyl)-3-[3-[N-methyl-N-[2-(3,4-methylenedioxyphenoxy)ethyl]amino]propyl]-5-methyl-1,3-thiazolidin-4-one]
IC50 [1]: 49 nM | minimal effective concentration [5]: 0.32 µM

CN(CCCCCN1C(=O)CSC1c1cc(C(C)(C)C)c(O)c(C(C)(C)C)c1)CCOc1ccc2c(c1)OCO2 (centres unmarked) [Compound 9]
Percent (%) of Control ([4]; 5 x 10^-6 M): 5.9% | IC50 ([1]; Rattus norvegicus): 28 nM | Survival Rate of Cells [2]: ++

CN(CCCN1C(=O)CSC1c1cc(C(C)(C)C)c(O)c(C(C)(C)C)c1)CCOc1ccc2c(c1)OCO2 (single isomer, unassigned; (+)) [Compound 70, (+)-2-(3,5-Di-tert-butyl-4-hydroxyphenyl)-3-[3-[N-methyl-N-[2-(3,4-methylenedioxyphenoxy)ethyl]amino]propyl]-1,3-thiazolidin-4-one]
Percent (%) of Control ([4]; 5 x 10^-6 M, 5 µM): 5.1% | IC50 [1]: 300 nM | minimal effective concentration ([5]; Rattus norvegicus, Ventricular myocyte): 0.32 µM

CCN(CCCN1C(=O)CSC1c1cc(C(C)(C)C)c(O)c(C(C)(C)C)c1)CCOc1ccc2c(c1)OCO2 (centres unmarked) [Compound 12]
Percent (%) of Control ([4]; 5 x 10^-6 M): 6.4% | IC50 ([1]; Rattus norvegicus): 63 nM | Survival Rate of Cells [2]: ++

CN(CCCOc1ccc2c(c1)OCO2)CCCN1C(=O)CSC1c1cc(C(C)(C)C)c(O)c(C(C)(C)C)c1 (centres unmarked) [Compound 17]
Percent (%) of Control ([4]; 5 x 10^-6 M): 3.9% | IC50 ([1]; Rattus norvegicus): 28 nM

CN(CCCN1C(=O)CSC1c1cc(C(C)(C)C)c(O)c(C(C)(C)C)c1)CCOc1ccc2c(c1)OCO2 (single isomer, unassigned; (-)) [Compound 71, (-)-2-(3,5-Di-tert-butyl-4-hydroxyphenyl)-3-[3-[N-methyl-N-[2-(3,4-methylenedioxyphenoxy)ethyl]amino]propyl]-1,3-thiazolidin-4-one]
Percent (%) of Control ([4]; 5 x 10^-6 M, 5 µM): 2.8% | IC50 [1]: 27 nM | minimal effective concentration [5]: 0.32 µM | inhibitory action against the contraction caused by CaCl2 [6]: need be applied in a by far smaller amount than diltiazem to exhibit an outstanding inhibitory action | suppression of 3,4-DAP-induced rhythmic contractions [7]: capable of suppressing the 3,4-DAP-induced rhythmic contractions at a lower concentration than diltiazem

COc1ccc([C@@H]2Sc3ccccc3N(CCN(C)C)C(=O)[C@@H]2OC(C)=O)cc1 [Diltiazem, reference compound]
Survival Rate of Cells [2]: -

COc1ccc(CN(C)CCCN2C(=O)CSC2c2cc(C(C)(C)C)c(O)c(C(C)(C)C)c2)cc1OC (centres unmarked) [Compound 19]
IC50 ([1]; Rattus norvegicus): 110 nM

CN(CCCN1C(=O)C(CCO)SC1c1cc(C(C)(C)C)c(O)c(C(C)(C)C)c1)CCOc1ccc2c(c1)OCO2 (centres unmarked) [Compound 49, 2-(3,5-Di-tert-butyl-4-hydroxyphenyl)-3-[3-[N-methyl-N-[2-(3,4-methylenedioxyphenoxy)ethyl]amino]propyl]-5-(2-hydroxyethyl)-1,3-thiazolidin-4-one]
IC50 ([1]; Rattus norvegicus): 23 nM

COc1ccc(CCN(C)CCCN2C(=O)CSC2c2cc(C(C)(C)C)c(O)c(C(C)(C)C)c2)cc1OC (centres unmarked) [Compound 20]
Percent (%) of Control ([4]; 5 x 10^-6 M): 0.6% | Percent (%) of Control ([4]; 5 x 10^-7 M, 0.5 µM): 8.7% | Survival Rate of Cells [2]: +

CC1SC(c2cc(C(C)(C)C)c(O)c(C(C)(C)C)c2)N(CCCN(C)CCOc2ccc3c(c2)OCO3)C1=O (single isomer, unassigned; (+)) [Compound 74, (+)-2,5-Cis-2-[3,5-di-tert-butyl-4-hydroxyphenyl)-3-[3-[N-methyl-N-[2-(3,4-methylenedioxyphenoxy)ethyl]amino]propyl]-5-methyl-1,3-thiazolidin-4-one]
IC50 [1]: 141 nM

CC(C)c1cc(C2SCC(=O)N2CCCN(C)CCOc2ccc3c(c2)OCO3)cc(C(C)C)c1O (centres unmarked) [Compound 1, 2-(3,5-Diisopropyl-4-hydroxyphenyl)-3-[3-[N-methyl-N-[2-(3,4-methylenedioxyphenoxy)ethyl]amino]propyl]-1,3-thiazolidin-4-one]
IC50 ([1]; Rattus norvegicus): 170 nM
